25 molecules from patent publication US20220073536A1 (Rigel Pharmaceuticals, Inc., priority 2003, published 2022) can be followed below.

In test [1] the test system is cultured human mast cells (CHMC). Description: CHMC low cell density IgE activation: tryptase assay. Format: cell-based. As to conditions: low cell density CHMC, IgE activation. A digest of the protocol:
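Anti-IgE-driven degranulation of cultured human mast cells at low density, 1000–1500 cells/well, was induced over 30 min at 37 °C. It was scored by supernatant tryptase activity on a fluorogenic substrate.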

Test [2] shares this test system. Description: CHMC low cell density ionomycin activation: tryptase assay. The note with it: low cell density CHMC, read-out: LD Tryptase, CHMC, Iono, 3 pt. Format: cell-based.
Setting [3] is: Homo sapiens, Mast cell, tryptase, 3 pt, read-out: LD Tryptase, CHMC, IgE, 3 pt.
The mark [4] stands for this setting: Homo sapiens, Mast cell, tryptase, 8 pt, read-out: LD Tryptase, CHMC, IgE, 8 pt.
Setting [5] is: Homo sapiens, Mast cell, tryptase, 3 pt.
Setting [6] is: tryptase release, 3 point, read-out: LD Tryptase, CHMC, IgE, 3 pt.
Setting [7] is: tryptase release, 8 point, read-out: LD Tryptase, CHMC, IgE, 8 pt.
Setting [8] is: tryptase readout, 3 pt, read-out: LD Tryptase, CHMC, IgE, 3 pt.
[9] abbreviates: tryptase readout, 8 pt, read-out: LD Tryptase, CHMC, IgE, 8 pt.
[10] abbreviates: Homo sapiens, Mast cell, tryptase release, 3 point, read-out: LD Tryptase, CHMC, IgE, 3 pt.
Setting [11] is: Homo sapiens, Mast cell, tryptase release, 3 point.
[12] abbreviates: tryptase release, 3 pt, read-out: LD Tryptase, CHMC, IgE, 3 pt.
Setting [13] is: tryptase release, 8 pt, read-out: LD Tryptase, CHMC, IgE, 8 pt.
The mark [14] stands for this setting: Homo sapiens, Mast cell, tryptase release, 3 pt, read-out: LD Tryptase, CHMC, IgE, 3 pt.
[15] abbreviates: Homo sapiens, Mast cell, tryptase release, 8 pt, read-out: LD Tryptase, CHMC, IgE, 8 pt.
Where [16] appears, read: Homo sapiens, Mast cell, tryptase release, 3 pt.

`COC(=O)CCNC(=O)c1ccc(Nc2ncc(F)c(Nc3ccc4c(c3)NC(=O)C(C)(C)O4)n2)cc1` [Compound 1302, N4-(2,2-Dimethyl-3-oxo-4H-benz[1,4]oxazin-6-yl)-5-fluoro-N2-[4-[N-(2-methoxycarbonylethyl)aminocarbonyl]phenyl]-2,4-pyrimidinediamine]: the IC50 in test [1] (setting [3]), in test [1] (setting [4]) and in test [2] (setting [5]) was under 10 µM throughout.

For `CNC(=O)COc1ccc(Nc2nc(Nc3ccc4ccn(CC(=O)OC)c4c3)ncc2F)cc1Cl` [Compound 640, N4-[3-Chloro-4-(N-methylamino)carbonylmethyleneoxyphenyl]-5-fluoro-N2-[1-(methoxycarbonylmethylene)indol-6-yl]-2,4-pyrimidinediamine], the IC50 in test [1] (setting [6]) was under 10 µM; in test [1] (setting [7]), under 10 µM; in test [2] (tryptase release, 3 point), over 10 µM.

`Cc1cc(Nc2ncc(F)c(Nc3ccc4c(n3)NC(=O)C(C)(C)O4)n2)cc(C)c1OCC(=O)NC1CCCC1` [Compound 1044, N2-[3,5-Dimethyl-4-(N-cyclopentylamino)carbonylmethyleneoxyphenyl]-N4-(2,2-dimethyl-3-oxo-4H-5-pyrid[1,4]oxazin-6-yl)-5-fluoro-2,4-pyrimidinediamine]: the IC50 in test [1] (setting [8]) was over 10 µM; in test [1] (setting [9]) it was over 10 µM; in test [2] (tryptase readout, 3 pt), over 10 µM.

As for `CCOC(=O)c1cc2cccc(Nc3ncc(F)c(N(C)c4ccc(OC)c(OC)c4)n3)c2[nH]1` [Compound 435, N4-(3,4-Dimethoxyphenyl)-N2-[2-(ethoxycarbonyl)indol-7-yl]-5-fluoro-N4-methyl-2,4-pyrimidinediamine], the IC50 in test [1] (setting [3]) is under 10 µM; in test [2] (setting [5]), over 10 µM.

For `Cc1cc(N(C)c2nc(Nc3cccc(-c4cnco4)c3)ncc2F)cc(C)c1Cl` [Compound 597], the values for the IC50 in test [1] (setting [10]) and in test [2] (setting [11]) were under 10 µM and over 10 µM, respectively.

For the molecule `COc1ccc(N(C)c2nc(Nc3ccc(-c4ncco4)cc3)ncc2F)cc1OC` [Compound 440, N4-(3,4-Dimethoxyphenyl)-5-fluoro-N4-methyl-N2-[4-(oxazol-2-yl)phenyl]-2,4-pyrimidinediamine], the IC50 in test [1] (setting [3]) is under 10 µM; in test [2] (setting [5]), over 10 µM.

Consider `CN1CCN(c2cccc(Nc3ncc(F)c(NC4CCCCC4)n3)c2)CC1` [Compound 1168, N4-Cyclohexyl-5-fluoro-N2-[3-(4-methylpiperazino)phenyl]-2,4-pyrimidinediamine], for which the IC50 in test [1] (setting [3]) is under 10 µM; in test [2] (setting [5]) it was over 10 µM.

Regarding `Fc1cnc(Nc2cccc(N3CCOCC3)c2)nc1NC1CCCC1` [Compound 1158, N4-Cyclopentyl-5-fluoro-N2-(3-morpholinophenyl)-2,4-pyrimidinediamine], the IC50 was under 10 µM in test [1] (setting [3]) and over 10 µM in test [2] (setting [5]).

On to `CC(=O)N1CCN(c2cccc(Nc3ncc(F)c(Nc4cc(C5CC5)n[nH]4)n3)c2)CC1` [Compound 1112], for which the IC50 in test [1] (setting [3]), in test [1] (setting [4]) and in test [2] (setting [5]) was under 10 µM throughout.

Take `COc1ccc(Nc2ncc(F)c(Nc3ccc(OCCO)c(Cl)c3)n2)cc1Cl` [Compound 621, N4-[3-Chloro-4-(2-hydroxyethyleneoxy)phenyl]-N2-(3-chloro-4-methoxyphenyl)-5-fluoro-2,4-pyrimidinediamine]: the IC50 was under 10 µM in test [1] (setting [6]); under 10 µM in test [1] (setting [7]); over 10 µM in test [2] (tryptase release, 3 point).

As to `CCn1ncc2ccc(Nc3ncc(F)c(Nc4ccc(F)c(OC)c4)n3)cc21` [Compound 701, N2-(1-Ethylindazol-6-yl)-5-fluoro-N4-(4-fluoro-3-methoxyphenyl)-2,4-pyrimidinediamine], the IC50 in test [1] (setting [3]) and in test [2] (setting [5]) was under 10 µM in each case.

On to `CC(=O)N1CCN(c2ccc(Nc3ncc(F)c(N(C)C4CCC4)n3)cc2)CC1` [Compound 1140, N2-[4-(4-Acetylpiperazino)phenyl]-N4-cyclobutyl-5-fluoro-N4-methyl-2,4-pyrimidinediamine], for which the results for the IC50 in test [1] (setting [3]) and in test [2] (setting [5]) were under 10 µM and over 10 µM, respectively.

For `CNC(=O)c1cc2cccc(Nc3ncc(F)c(N(C)c4cc(OC)cc(OC)c4)n3)c2[nH]1` [Compound 406, N4-(3,5-Dimethoxyphenyl)-5-fluoro-N4-methyl-N2-[2-(N-methylamino)carbonylindol-7-yl]-2,4-pyrimidinediamine], the results for the IC50 in test [1] (setting [3]) and in test [2] (setting [5]) were under 10 µM and over 10 µM, respectively.

As to `Fc1cnc(Nc2ccc(-c3cnco3)cc2)nc1Nc1ccc2c(c1)NCCO2` [Compound 222, N4-(3,4-Dihydro-2H,4H-Benz[1,4]oxazin-6-yl)-5-fluoro-N2-[4-(oxazol-5-yl)phenyl]-2,4-pyrimidinediamine], the IC50 was under 10 µM in test [1] (setting [12]); under 10 µM in test [1] (setting [13]); over 10 µM in test [2] (tryptase release, 3 pt).

For the molecule `CC1(C)Oc2ccc(Nc3nc(Nc4ccc5c(c4)OCCO5)ncc3F)nc2NC1=O` [Compound 1055, N4-(2,2-Dimethyl-3-oxo-4H-5-pyrid[1,4]oxazin-6-yl)-N2-(3,4-ethylenedioxyphenyl)-5-fluoro-2,4-pyrimidinediamine], the IC50 is under 10 µM in test [1] (setting [8]); under 10 µM in test [1] (setting [9]); over 10 µM in test [2] (tryptase readout, 3 pt).

Take `COCCn1ncc2ccc(Nc3ncc(F)c(Nc4ccc5c(c4)NC(=O)C(C)(C)O5)n3)cc21` [Compound 777, N4-(2,2-Dimethyl-3-oxo-4H-benz[1,4]oxazin-6-yl)-5-fluoro-N2-[1-(2-methoxyethyl)indazol-6-yl]-2,4-pyrimidinediamine]: the figures for the IC50 in test [1] (setting [14]), in test [1] (setting [15]) and in test [2] (setting [16]) were under 10 µM, under 10 µM and over 10 µM, respectively.

In the case of `Cc1cc(Nc2ncc(F)c(N(C)c3ccc4c(c3)N(C)C(=O)C(C)(C)O4)n2)cc(Cl)c1OC1CCCC1` [Compound 1032, N2-(3-Chloro-4-cyclopentyloxy-5-methylphenyl)-5-fluoro-N4-methyl-N4-(3-oxo-2,2,4-trimethyl-benz[1,4]oxazin-6-yl)-2,4-pyrimidinediamine], the IC50 in test [1] (Homo sapiens, Mast cell, tryptase readout, 3 pt, read-out: LD Tryptase, CHMC, IgE, 3 pt) is over 10 µM; in test [2] (Homo sapiens, Mast cell, tryptase readout, 3 pt), over 10 µM.

`CC1(C)COc2ccc(Nc3nc(Nc4ccc(-c5cnco5)cc4)ncc3F)cc2N1` [Compound 223, N4-(3,4-Dihydro-3,3-dimethyl-2H,4H-benz[1,4]oxazin-6-yl)-5-fluoro-N2-[4-(oxazol-5-yl)phenyl]-2,4-pyrimidinediamine]: the IC50 is under 10 µM in test [1] (setting [12]); under 10 µM in test [1] (setting [13]); over 10 µM in test [2] (tryptase release, 3 pt).

As for `COCCCn1ncc2cc(Nc3ncc(F)c(Nc4ccc(Cl)c(Cl)c4)n3)ccc21` [Compound 793, N4-(3,4-Dichlorophenyl)-5-fluoro-N2-[1-(3-methoxypropyl)indazol-5-yl]-2,4-pyrimidinediamine], the IC50 in test [1] (setting [14]) was under 10 µM; in test [1] (setting [15]), under 10 µM; in test [2] (setting [16]) it was over 10 µM.

Regarding `CCOC(=O)N1CCN(c2ccc(Nc3ncc(F)c(Nc4cc(C5CC5)n[nH]4)n3)cc2)CC1` [Compound 1116, N4-(3-Cyclopropyl-1H-pyrazol-5-yl)-N2-[4-(4-ethoxycarbonylpiperazino)phenyl]-5-fluoro-2,4-pyrimidinediamine], the IC50 in test [1] (setting [3]) and in test [2] (setting [5]) was under 10 µM throughout.

With `CNC(=O)Cn1ccc2ccc(Nc3ncc(F)c(Nc4ccc(OC)c(Cl)c4)n3)cc21` [Compound 664, N4-(3-Chloro-4-methoxyphenyl)-5-fluoro-N2-[1-(N-methylamino)carbonylmethyleneindol-6-yl]-2,4-pyrimidinediamine], the IC50 is under 10 µM in test [1] (setting [6]); under 10 µM in test [1] (setting [7]); over 10 µM in test [2] (tryptase release, 3 point).

Regarding `Cc1cc(N(C)c2nc(Nc3ccc(-c4cnco4)cc3)ncc2F)cc(C)c1Cl` [Compound 598], the figures for the IC50 in test [1] (setting [10]) and in test [2] (setting [11]) were under 10 µM and over 10 µM, respectively.

As to `NC(=S)c1cccc(Nc2ncc(F)c(Nc3ccc4c(c3)NC(=O)C(CCO)O4)n2)c1` (stereo not drawn) [Compound 262, N2-(3-Benzothioamide)-5-fluoro-N4-[2-(2-hydroxyethyl)-3-oxo-2H,4H-benz[1,4]oxazin-6-yl]-2,4-pyrimidinediamine], the IC50 in test [1] (setting [12]) was under 10 µM; in test [2] (tryptase release, 3 pt), over 10 µM.

As to `O=C1COc2ccc(Nc3nc(Nc4cccc(-c5cnco5)c4)ncc3F)cc2N1` [Compound 246], the values for the IC50 in test [1] (setting [14]), in test [1] (setting [15]) and in test [2] (setting [16]) were under 10 µM, under 10 µM and over 10 µM, respectively.

As to `Fc1cnc(Nc2cccc(-c3ncco3)c2)nc1Nc1ccc2c(c1)NCCO2` [Compound 217, N4-(3,4-Dihydro-2H,4H-benz[1,4]oxazin-6-yl)-5-fluoro-N2-[3-(oxazol-2-yl)phenyl]-2,4-pyrimidinediamine], the IC50 was under 10 µM in test [1] (setting [12]); under 10 µM in test [1] (setting [13]); over 10 µM in test [2] (tryptase release, 3 pt).
